Counter-ions that a name gives are not always drawn.
What was measured:
PLK1 kinase domain = target: T1, PLK1 kinase domain (Homo sapiens, UniProt P53350); assay: Assay for Inhibition of PLK1 (SPA enzyme activity); type: biochemical; settings: 2 μM ATP, read-out: Ave pIC50 PLK Enzyme Inhibition (converted)
T1 construct: made in house; host or cells: baculovirus-infected T. ni insect cells

[1] = tested on: lung (H460) tumor cell line; assay: Methylene Blue Growth Inhibition Assay, H460; type: cell-based; settings: Homo sapiens, NCI-H460, 72 h; Cell Line H460, 3 days; read-out: MeB IC50
How it was run: (§1)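 Seeded HFF, RKO or H460 cells treated 3 days with compound (0.3% DMSO), then stained with methylene blue; OD 620 nm, percent inhibition vs vehicle, IC50 by regression.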

[2] = tested on: colon (HCT116) tumor cell line; assay: Methylene Blue Growth Inhibition Assay, HCT116; type: cell-based; settings: Homo sapiens, HCT-116, 72 h; Cell Line HCT116, 3 days; read-out: MeB IC50
How it was run: (§2)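 Methylene blue dye retained by cells after a 3-day, 37° C compound incubation in DMEM/10% FBS (0.3% DMSO) served as the biomass readout at 620 nm. IC50 values were interpolated by nonlinear regression against vehicle wells.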

[3] = tested on: Normal Human foreskin fibroblasts (HFF); assay: Methylene Blue Growth Inhibition Assay, HFF; type: cell-based; settings: 72 h, Cell Line HFF, 3 days, read-out: MeB IC50
How it was run: as §1

[4] = tested on: breast tumor (MCF7) cell line; assay: Methylene Blue Growth Inhibition Assay, MCF7; type: cell-based; settings: Homo sapiens, 72 h; Cell Line MCF7, 3 days; read-out: MeB IC50
How it was run: as §2

[5] = tested on: prostate (PC3) tumor cell line; assay: Methylene Blue Growth Inhibition Assay, PC3; type: cell-based; settings: Homo sapiens, 72 h; Cell Line PC3, 3 days; read-out: MeB IC50
How it was run: as §2

[6] = tested on: colon (RKO) tumor cell line; assay: Methylene Blue Growth Inhibition Assay, RKO; type: cell-based; settings: Homo sapiens, 72 h, 3 days, read-out: MeB IC50
How it was run: as §1

A549 = assay: Methylene Blue Growth Inhibition Assay, A549; type: cell-based; settings: Homo sapiens; Cell Line A549; read-out: MeB IC50

T1 sequence (P53350 21-346): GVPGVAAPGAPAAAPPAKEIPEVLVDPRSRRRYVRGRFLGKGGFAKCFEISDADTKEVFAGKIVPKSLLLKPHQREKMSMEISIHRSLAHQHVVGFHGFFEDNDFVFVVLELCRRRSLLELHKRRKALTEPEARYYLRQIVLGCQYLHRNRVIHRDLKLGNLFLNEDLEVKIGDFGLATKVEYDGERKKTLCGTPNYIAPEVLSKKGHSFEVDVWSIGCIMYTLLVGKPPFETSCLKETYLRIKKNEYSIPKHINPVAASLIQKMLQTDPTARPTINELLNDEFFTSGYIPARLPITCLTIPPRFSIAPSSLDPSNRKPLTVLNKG

## COc1cc2ncn(-c3cc(OCc4cc5c(cc4Cl)OCO5)c(C(N)=O)s3)c2cc1OC [Example 91, 3-[(6-Chloro-1,3-dibenzodioxol-5-yl)methoxy]-5-(5,6-dimethoxy-1H-benzimidazol-1-yl)thiophene-2-carboxamide]
PLK1 kinase domain
  IC50: < 0.1 µM
[1]
  IC50: < 1 µM
[2]
  IC50: < 1 µM
[3]
  IC50: > 10 µM
[4]
  IC50: < 1 µM
[5]
  IC50: 1 to 10 µM
[6]
  IC50: < 1 µM
A549
  IC50: < 1 µM

## COc1cc2ncn(-c3cc(OCc4cccnc4Cl)c(C(N)=O)s3)c2cc1OC [Example 101, 3-[(2-Chloropyridin-3-yl)methoxy]-5-(5,6-dimethoxy-1H-benzimidazol-1-yl)thiophene-2-carboxamide]
PLK1 kinase domain
  IC50: < 0.1 µM
[1]
  IC50: 1 to 10 µM
[2]
  IC50: 1 to 10 µM
[3]
  IC50: > 10 µM
[4]
  IC50: 1 to 10 µM
[5]
  IC50: 1 to 10 µM
[6]
  IC50: < 1 µM
A549
  IC50: 1 to 10 µM

## COc1cc2ncn(-c3cc(OCc4cccnc4F)c(C(N)=O)s3)c2cc1OC [Example 102, 5-(5,6-Dimethoxy-1H-benzimidazol-1-yl)-3-[(2-fluoropyridin-3-yl)methoxy]thiophene-2-carboxamide]
PLK1 kinase domain
  IC50: < 0.1 µM
[1]
  IC50: 1 to 10 µM
[2]
  IC50: 1 to 10 µM
[3]
  IC50: > 10 µM
[4]
  IC50: 1 to 10 µM
[5]
  IC50: > 10 µM
[6]
  IC50: < 1 µM
A549
  IC50: 1 to 10 µM

## COc1cc2ncn(-c3cc(OCc4ccccc4OC(F)(F)F)c(C(N)=O)s3)c2cc1OC [Example 107, 5-(5,6-Dimethoxy-1H-benzimidazol-1-yl)-3-{[2-(trifluoromethoxy)benzyl]oxy}thiophene-2-carboxamide]
PLK1 kinase domain
  IC50: < 0.1 µM
[1]
  IC50: < 1 µM
[2]
  IC50: 1 to 10 µM
[3]
  IC50: 1 to 10 µM
[4]
  IC50: 1 to 10 µM
[5]
  IC50: 1 to 10 µM
[6]
  IC50: < 1 µM
A549
  IC50: < 1 µM

## COc1cc2ncn(-c3cc(OCc4ccccc4OC(F)F)c(C(N)=O)s3)c2cc1OC [Example 108, 3-{[2-(Difluoromethoxy)benzyl]oxy}-5-(5,6-dimethoxy-1H-benzimidazol-1-yl)thiophene-2-carboxamide]
PLK1 kinase domain
  IC50: < 0.1 µM
[1]
  IC50: < 1 µM
[2]
  IC50: < 1 µM
[3]
  IC50: > 10 µM
[4]
  IC50: < 1 µM
[5]
  IC50: > 10 µM
[6]
  IC50: < 1 µM
A549
  IC50: < 1 µM

## COc1cc2ncn(-c3cc(OCc4ccncc4Br)c(C(N)=O)s3)c2cc1OC [Example 120, 3-[(3-Bromopyridin-4-yl)methoxy]-5-(5,6-dimethoxy-1H-benzimidazol-1-yl)thiophene-2-carboxamide]
PLK1 kinase domain
  IC50: < 0.1 µM
[1]
  IC50: 1 to 10 µM
[2]
  IC50: 1 to 10 µM
[3]
  IC50: > 10 µM
[4]
  IC50: 1 to 10 µM
[5]
  IC50: > 10 µM
[6]
  IC50: < 1 µM
A549
  IC50: 1 to 10 µM

## CS(=O)(=O)c1ccc2ncn(-c3cc(OCc4ccccc4C(F)(F)F)c(C(N)=O)s3)c2c1 [Example 121]
PLK1 kinase domain
  IC50: < 0.1 µM
[1]
  IC50: 1 to 10 µM
[2]
  IC50: 1 to 10 µM
[3]
  IC50: > 10 µM
[4]
  IC50: 1 to 10 µM
[5]
  IC50: > 10 µM
[6]
  IC50: 1 to 10 µM
A549
  IC50: 1 to 10 µM

## COc1cc2ncn(-c3cc(OC(C)c4ccccc4Cl)c(C(N)=O)s3)c2cc1OC (stereo not drawn) [Example 126, 3-[1-(2-Chlorophenyl)ethoxy]-5-(5,6-dimethoxy-1H-benzimidazol-1-yl)thiophene-2-carboxamide]
[1]
  IC50: < 1 µM
[2]
  IC50: < 1 µM
[3]
  IC50: < 1 µM
[4]
  IC50: 1 to 10 µM
[5]
  IC50: 1 to 10 µM
[6]
  IC50: < 1 µM
A549
  IC50: < 1 µM

## COc1cc2ncn(-c3cc(OC(C)c4ccccc4C(F)(F)F)c(C(N)=O)s3)c2cc1OC (stereo not drawn) [Example 127]
PLK1 kinase domain
  IC50: < 0.1 µM
[1]
  IC50: < 1 µM
[2]
  IC50: < 1 µM
[3]
  IC50: 1 to 10 µM
[4]
  IC50: < 1 µM
[5]
  IC50: 1 to 10 µM
[6]
  IC50: < 1 µM
A549
  IC50: < 1 µM

## COc1cc2c(cc1OCCCN1CCCC1=O)ncn2-c1cc(OCc2ccccc2C(F)(F)F)c(C(N)=O)s1 [Example 134, 5-(6-(Methyloxy)-5-{[3-(2-oxo-1-pyrrolidinyl)propyl]oxy}-1H-benzimidazol-1-yl)-3-({[2-(trifluoromethyl)phenyl]methyl}oxy)-2-thiophenecarboxamide]
PLK1 kinase domain
  IC50: < 0.1 µM
[1]
  IC50: 1 to 10 µM
[2]
  IC50: 1 to 10 µM
[3]
  IC50: > 10 µM
[4]
  IC50: 1 to 10 µM
[5]
  IC50: > 10 µM
[6]
  IC50: 1 to 10 µM
A549
  IC50: 1 to 10 µM

## NC(=O)c1sc(-n2cnc3ccc(OCC4CCNCC4)cc32)cc1OCc1ccccc1C(F)(F)F [Example 143, 5-{6-[(4-Piperidinylmethyl)oxy]-1H-benzimidazol-1-yl}-3-({[2-(trifluoromethyl)phenyl]-methyl}oxy)-2-thiophenecarboxamide]
PLK1 kinase domain
  IC50: < 0.1 µM
[1]
  IC50: 1 to 10 µM
[2]
  IC50: < 1 µM
[3]
  IC50: 1 to 10 µM
[4]
  IC50: < 1 µM
[5]
  IC50: 1 to 10 µM
[6]
  IC50: < 1 µM
A549
  IC50: 1 to 10 µM

## NC(=O)c1sc(-n2c(N)nc3ccccc32)cc1OCc1ccccc1C(F)(F)F [Example 148, 5-(2-Amino-1H-benzimidazol-1-yl)-3-{[2-(trifluoromethyl)benzyl]oxy}thiophene-2-carboxamide]
PLK1 kinase domain
  IC50: 0.1 to 10 µM
[1]
  IC50: 1 to 10 µM
[2]
  IC50: 1 to 10 µM
[3]
  IC50: > 10 µM
[4]
  IC50: 1 to 10 µM
[5]
  IC50: > 10 µM
[6]
  IC50: 1 to 10 µM

## COC(=O)c1sc(-n2cnc3cc(OC)c(OC)cc32)cc1OS(=O)(=O)c1ccccc1[N+](=O)[O-] [Example 149]
PLK1 kinase domain
  IC50: < 0.1 µM
[1]
  IC50: 1 to 10 µM
[2]
  IC50: 1 to 10 µM
[3]
  IC50: > 10 µM
[4]
  IC50: > 10 µM
[5]
  IC50: > 10 µM
[6]
  IC50: > 10 µM

## COC(=O)c1sc(-n2cnc3cc(OC)c(OC)cc32)cc1OS(=O)(=O)C(F)(F)F [Example 150, Methyl 5-(5,6-dimethoxy-1H-benzimidazol-1-yl)-3-{[(trifluoromethyl)sulfonyl]oxy}thiophene-2-carboxylate]
PLK1 kinase domain
  IC50: 0.1 to 10 µM
[1]
  IC50: > 10 µM
[2]
  IC50: > 10 µM
[3]
  IC50: > 10 µM
[4]
  IC50: > 10 µM
[5]
  IC50: > 10 µM
[6]
  IC50: > 10 µM

## COc1cc2ncn(-c3cc(OS(=O)(=O)c4ccccc4C)c(C(=O)O)s3)c2cc1OC [Example 151, 5-(5,6-Dimethoxy-1H-benzimidazol-1-yl)-3-{[(2-methylphenyl)sulfonyl]oxy}thiophene-2-carboxylic acid]
PLK1 kinase domain
  IC50: < 0.1 µM
[1]
  IC50: > 10 µM
[2]
  IC50: > 10 µM
[3]
  IC50: > 10 µM
[4]
  IC50: > 10 µM
[5]
  IC50: > 10 µM
[6]
  IC50: > 10 µM

## COc1cc2ncn(-c3cc(O)c(C(N)=O)s3)c2cc1OC [Example 152, 5-(5,6-Dimethoxy-1H-benzimidazol-1-yl)-3-hydroxythiophene-2-carboxamide trifluoroacetate]
PLK1 kinase domain
  IC50: 0.1 to 10 µM
[1]
  IC50: > 10 µM
[2]
  IC50: > 10 µM
[3]
  IC50: > 10 µM
[4]
  IC50: > 10 µM
[5]
  IC50: > 10 µM
[6]
  IC50: > 10 µM

## COc1cc2ncn(-c3cc(OS(=O)(=O)c4ccccc4[N+](=O)[O-])c(C(N)=O)s3)c2cc1OC [Example 153, 2-(Aminocarbonyl)-5-(5,6-dimethoxy-1H-benzimidazol-1-yl)thien-3-yl 2-nitrobenzenesulfonate]
PLK1 kinase domain
  IC50: < 0.1 µM
[1]
  IC50: > 10 µM
[2]
  IC50: > 10 µM
[3]
  IC50: > 10 µM
[4]
  IC50: > 10 µM
[5]
  IC50: > 10 µM
[6]
  IC50: > 10 µM

## CS(=O)(=O)CCNC(=O)c1ccc2c(c1)ncn2-c1cc(OCc2ccccc2C(F)(F)F)c(C(N)=O)s1 [Example 155, 1-(5-(Aminocarbonyl)-4-{[2-(trifluoromethyl)benzyl]oxy}thien-2-yl)-N-[2-(methylsulfonyl)ethyl]-1H-benzimidazole-5-carboxamide]
PLK1 kinase domain
  IC50: < 0.1 µM
[1]
  IC50: > 10 µM
[2]
  IC50: > 10 µM
[3]
  IC50: > 10 µM
[4]
  IC50: > 10 µM
[5]
  IC50: > 10 µM
[6]
  IC50: > 10 µM

## NC(=O)c1sc(-n2cnc3cc(C(=O)NCCN4CCNC4=O)ccc32)cc1OCc1ccccc1C(F)(F)F [Example 156, 1-(5-(Aminocarbonyl)-4-{[2-(trifluoromethyl)benzyl]oxy}thien-2-yl)-N-[2-(2-oXoimidazolidin-1-yl)ethyl]-1H-benzimidazole-5-carboxamide]
PLK1 kinase domain
  IC50: < 0.1 µM
[1]
  IC50: > 10 µM
[2]
  IC50: > 10 µM
[3]
  IC50: > 10 µM
[4]
  IC50: > 10 µM
[5]
  IC50: > 10 µM
[6]
  IC50: > 10 µM

## CC(Oc1cc(-n2cnc3cc(N)ccc32)sc1C(N)=O)c1ccccc1Cl (stereo not drawn) [Example 157, 5-(5-Amino-1H-benzimidazol-1-yl)-3-[1-(2-chlorophenyl)ethoxy]thiophene-2-carboxamide]
PLK1 kinase domain
  IC50: < 0.1 µM
[1]
  IC50: < 1 µM
[2]
  IC50: < 1 µM
[3]
  IC50: > 10 µM
[4]
  IC50: < 1 µM
[5]
  IC50: < 1 µM
[6]
  IC50: < 1 µM
